From patent US10066272B2, “Human homeobox gene ventx and macrophage terminal differentiation and activation, compositions and methods thereof” (priority 2011, dated 2018)

Assays:
Assay type in all cases: cell-based, human
[1] = tested on: allogenic naive CD4+ T cells; assay: Mixed lymphocyte reaction; settings: irradiated transfected macrophages (FIG. 8F)
Protocol: (§1) Macrophages were generated through incubation of freshly isolated monocytes with 100 ng/mL M-CSF for 4 days. These macrophages were then transfected with siGFP or siVentX, respectively, and further cultured in RPMI 1640 medium for additional 3 days. Thereafter, cells were exposed to 1 μg/mL LPS plus 20 ng/mL γ-IFN for 6 hours. (A) Surface staining of CD40, CD80, CD86 and HLA-DR and intracellular staining of TNF-α and IL1-β were analyzed by flow cytometry. (B) Secreted TNF-α, IL1-β and IL12p70 from culture supernatants were determined with ELISA kits. (C) Reactive oxygen species (ROS) from siGFP or siVentX transfected macrophages were analyzed with fluorescence microscope (left) and flow cytometry (middle). […] (D) Nitrate level from siGFP and siVentX transfected macrophages. Data represent mean+SD of three different experiments. (E) Phagocytosis of siGFP and siVentX transfected macrophage. Red histogram represents transfection with siGFP; green histogram represents transfection with siVentX. Left panel: cells were incubated on ice; right panel: cells were incubated at 37° C. (F) Effects of VentX knockdown on mixed lymphocyte reaction. Irradiated macrophages that had been transfected with siGFP or siVentX were utilized to stimulate allogenic naïve CD4 T cells proliferation. The proliferation rates were represented by counts per minute (CPM). […]

activated macrophages = assay: Detection of reactive oxygen species (ROS) and nitric oxide (NO) in activated macrophages
Protocol: as §1, with “macrophage.” for “macrophage. Red histogram represents transfection with siGFP; green histogram represents transfection with siVentX. Left panel: cells were incubated on ice; right panel: cells were incubated at 37° C. (F) Effects of VentX knockdown on mixed lymphocyte reaction. Irradiated macrophages that had been transfected with siGFP or siVentX were utilized to stimulate allogenic naïve CD4 T cells proliferation. The proliferation rates were represented by counts per minute (CPM).”
The ROS level in activated macrophages was detected with Image-iT® LIVE Green Reactive Oxygen Species Detection Kit (Invitrogen) basically following the manufacturer's instructions except that the results were analyzed by both fluorescence microscope and flow cytometry. The NO level was determined by Griess Reagent Kit for Nitrite Determination (Invitrogen) following the protocol provided by the manufacturer.

[2] = tested on: cultured monocytes/macrophages; assay: Phagocytosis assay with pHrodo S. aureus BioParticles
Protocol: (A) Left panel: Flow cytometry analysis of indicated surface markers in monocytes transfected with siGFP or siVentX, respectively; right panel: bar graphs show the mean+SD of at least three separate experiments. *p<0.05; **p<0.01. (B) Effects of VentX knockdown on macrophage viability. Monocytes were transfected with either siGFP or siVentX and subsequently exposed to 100 ng/mL M-CSF for 3 days. Cells were then harvested and stained with PI and Annexin V and analyzed by flow cytometry. (C) Effects of VentX knockdown on phagocytosis. Monocytes were transfected with siGFP or siVentX. Phagocytosis assays were carried out as described in materials and methods. […]
Macrophages were generated through incubation of freshly isolated monocytes with 100 ng/mL M-CSF for 4 days. […] (A) Surface staining of CD40, CD80, CD86 and HLA-DR and intracellular staining of TNF-α and IL1-β were analyzed by flow cytometry. (B) Secreted TNF-α, IL1-β and IL12p70 from culture supernatants were determined with ELISA kits. (C) Reactive oxygen species (ROS) from siGFP or siVentX transfected macrophages were analyzed with fluorescence microscope (left) and flow cytometry (middle). […]
Phagocytosis of cultured monocytes/macrophages or U937 cells were performed with pHrodo™ S. aureus BioParticles® conjugates from Invitrogen. […] After extensive washings, cellular phagocytosis of bioparticles was monitored by flow cytometry. […]

[3] = tested on: cytokine mRNA expression in macrophages; assay: Effects of VentX knockdown on cytokine mRNA expression in macrophages (real-time PCR); set-up: unit not given here; settings: macrophages transfected with siRNA; classical activation by LPS plus IFN-γ
Protocol: Macrophages were generated through incubation of freshly isolated monocytes with 100 ng/mL M-CSF for 4 days. These macrophages were then transfected with siGFP or siVentX, respectively, and further cultured in RPMI 1640 medium for additional 3 days. Thereafter, cells were exposed to 1 μg/mL LPS plus 20 ng/mL γ-IFN for 6 hours. (A) Surface staining of CD40, CD80, CD86 and HLA-DR and intracellular staining of TNF-α and IL1-β were analyzed by flow cytometry. (B) Secreted TNF-α, IL1-β and IL12p70 from culture supernatants were determined with ELISA kits. (C) Reactive oxygen species (ROS) from siGFP or siVentX transfected macrophages were analyzed with fluorescence microscope (left) and flow cytometry (middle). […] (D) Nitrate level from siGFP and siVentX transfected macrophages. Data represent mean+SD of three different experiments. (E) Phagocytosis of siGFP and siVentX transfected macrophage. Red histogram represents transfection with siGFP; green histogram represents transfection with siVentX. Left panel: cells were incubated on ice; right panel: cells were incubated at 37° C. (F) Effects of VentX knockdown on mixed lymphocyte reaction. Irradiated macrophages that had been transfected with siGFP or siVentX were utilized to stimulate allogenic naïve CD4 T cells proliferation. The proliferation rates were represented by counts per minute (CPM). […] Statistically significant difference (p<0.05) was observed when 4×10^2 or 2×10^3 cells were added.
(Martinez, et al. 2008 Front Biosci 13:453-461; Mosser, et al. 2008 Nat Rev Immunol 8:958-969.) To investigate whether VentX is required for classical activation of macrophages, a loss-of-function approach by knockdown of VentX was used.
Human primary monocytes were transfected using the Human Monocyte Nucleofector Kit (Lonza) according to the manufacturer's instructions. Briefly, 5×10^6monocytes were resuspended into 100 μl nucleofector solution with 0.5 nmol of either VentX siRNA (forward: 5′-[…]-3′ (SEQ ID NO:4); reverse: 5′-[…]-3′ (SEQ ID NO:5)) or non-effective GFP siRNA (forward: 5′-[…]-3′ (SEQ ID NO:6); 5′-reverse: […]-3′ (SEQ ID NO:7)) before electroporation with nucleofector II Device (Lonza). Cells were then immediately removed from the device and incubated overnight with 1 ml pre-warmed Human Monocyte Nucleofector Medium containing 2 mM glutamine and 10% FBS. Cells were then resuspended into complete RPMI medium and treated with appropriate cytokines to induce differentiation into macrophages. Similarly, macrophages derived from monocytes were transfected with Human Macrophage Nucleofector Kit (Lonza) following the manufacturer's instructions.
Total RNA was isolated by the TRIzol reagent, and an equal amount of RNA was used for first-strand cDNA synthesis with SuperScript III First-Strand Synthesis System (Invitrogen) according to the manufacturer's protocol. To amplify VentX cDNA with conventional PCR, AccuPrime™ Taq DNA polymerase system (Invitrogen) was used following the manufacturer's instructions. PCR products were separated on 2% agarose gels and stained with ethidium bromide. GAPDH was used as an internal control. Quantitative measurement of VentX and cytokines cDNA were performed with SYBR Green on a LightCycler® (480 Real-Time PCR System; Roche). The primers used are listed in the Sequence Listing (SEQ ID NOs: 24-109).

siVentX: VentX siRNA, forward 5′-UUCAGAAUCGCCGCAUGAAACACAAACGG-3′ (SEQ ID NO:4), reverse SEQ ID NO:5 (antisense CCGUUUGUGUUUCAUGCGGCGAUUCUGAA; listed as RNA, chemistry not given here)
stimulation of allogeneic T cells proliferation [1]: less potent
reactive oxygen species produced (activated macrophages; transfected macrophages (FIG. 8C)): significantly less
nitric oxide produced (activated macrophages; transfected macrophages (FIG. 8D)): significantly less
phagocytotic capability of transfected macrophages ([2]; macrophages (FIG. 8E)): much weaker
phagocytotic activity of transfected monocytes ([2]; monocytes, in comparison with the control (FIG. 3C)): reduced phagocytotic activity
IL1-β cytokine mRNA expression [3]: 21.93 ± 1.8
IL6 cytokine mRNA expression [3]: 1.78 ± 0.14
IL8 cytokine mRNA expression [3]: 172 ± 5.8
IL12p35 cytokine mRNA expression [3]: 0.37 ± 0.14
IL12p40 cytokine mRNA expression [3]: 0.61 ± 0.05
M-SCSF cytokine mRNA expression [3]: 0.14 ± 0.01
TNF-α cytokine mRNA expression [3]: 0.18 ± 0.01
